Experimental data published in patent publication US20250091989A1, “SMALL MOLECULE PROTEIN SYNTHESIS MODULATORS” (Interdict Bio, Inc., priority 2023, published 2025).
pIC50: −log10 of the molar value.

Experiments:
ALK = experiment: In vitro transcription-translation (IVTT) reporter assay, ALK test sequence; format: biochemical; settings: HeLa S3 lysate, sfGFP/mCherry ratio, 2 hrs at 30° C.
Summary of the method: (§1)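 Coupled transcription-translation in HeLa S3 lysate with reporter plasmids encoding mCherry-P2A-3×FLAG-TEST-sfGFP behind an EMCV IRES. Compounds were half-log titrated (30 μM-0.1 μM in DMSO dilution plate) into master mix, then DNA was added. Reactions ran 2 hrs at 30° C, were PBS-quenched and read for fluorescence.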

MYC = experiment: In vitro transcription-translation (IVTT) reporter assay, MYC test sequence; format: biochemical; settings: HeLa S3 lysate, sfGFP/mCherry ratio, 2 hrs at 30° C.
Summary of the method: as §1

KRAS G12D = experiment: In vitro transcription-translation (IVTT) reporter assay, KRAS G12D test sequence; format: biochemical; settings: HeLa S3 lysate, sfGFP/mCherry ratio, 2 hrs at 30° C.
Summary of the method: as §1

CCND1 = experiment: In vitro transcription-translation (IVTT) reporter assay, CCND1 test sequence; format: biochemical; settings: HeLa S3 lysate, sfGFP/mCherry ratio, 2 hrs at 30° C.
Source text: (§2) All reporter constructs have been cloned into the pT7CFE1-CHis plasmid (ThermoFisher #88860) using Gibson assembly procedures (NEB #E2611L). The parental pT7CFE1-CHis plasmid contains an EMCV IRES at the 5′UTR for translation initiation, a multiple-cloning site (MCS) for gene insertion, an optional C-terminal His-epitope tag, and polyA sequence in the 3′UTR to regulate mRNA stability. All reporters are designed to be inserted at the MCS to include a red fluorescent protein (mCherry), P2A self-cleaving peptide which releases the preceding mCherry protein product, and a fusion open reading frame containing a 3×FLAG epitope, a peptide sequence of interest (TEST), and green fluorescent protein (sfGFP).
(§3) Construct Plasmid Preparation: All plasmids are isolated from MACH1 cells (ThermoFisher) grown overnight in ampicillin-containing luria broth, and purified using ZymoPure Express Plasmid Midiprep Kit (Zymo Research). Constructs are sequenced verified and diluted to a working concentration of 110 ng/μL.
(§4) HeLa S3 Lysate Preparation: HeLa S3 cell pellets are acquired from Ipracell/Ipratech (Belgium) and shipped as 4 mL frozen cell pellets on dry ice for storage at −80° C. until use. The procedure for lysate preparation is as follows. Prepare 1× Lysis Buffer, cold and stored on ice:
(§5) Each preparation takes 8 cell pellets (4 ml packed volume each, approximately 1.0×10^9 cells per pellet). Thaw cell pellets from −80° C. on ice for 90 mins. Lay pellets horizontally on top of the ice and rotate every 30 mins to ensure even thawing. Once thawed, add 4 mL of cold lysis buffer to each pellet, and using a serological pipet, gently pipet up and down to break up clumps. Incubate resuspended cells in ice for an additional 30 mins (plunged into ice). During 30 min incubation, rinse and RNase-zap (Ambion) glass dounces (use loose pestle “A”), gently dry and place on ice until needed. Prepare RNase-free Eppendorf tubes for spinning and for batch storage. Add batch labels to 1.5-1.7 mL RNase-free microcentrifuge tubes (labeling scheme below). Each batch will have an extra 1.5-1.7 mL RNase-free microcentrifuge tube for 40 μL of lysate, label the top of this tube (labeling scheme below). After 30 min incubation, transfer all 8 mL of cell pellet to dounce. Cell lysis is complete after douncing 100 times. Aliquot cell lysis into 1.5-1.7 mL temporary-microcentrifuge tubes. Place tubes in centrifuge with “fins” out, and spin at 1,200 xg for 5 mins. After the first spin use a 1 mL pipet to resuspend each tube and repeat spin. This acts as an additional lysis step, is more vigorous and increases lysate yield. During second spin get liquid N2 and a fresh conical tube on ice.
(§6) After spin is complete, transfer supernatant (lysate) from microcentrifuge tubes into the 50 mL conical tube and keep on ice. Repeat steps 10-14 for all other cell pellets until completed. Once all cell lysate has been transferred to the 50 mL conical tube pipet to mix so the solution is homogenous. Transfer 1 mL of lysate into batch-labeled microcentrifuge tubes and flash freeze in liquid nitrogen. Be sure to pipet up and down to mix throughout transfer step. Place all tubes in the […] for long-term storage.
(§7) In vitro transcription-translation assay setup: Each assay includes a master mix containing lysate and shared components, a 96-well plate containing compound titrations for testing, a 96-well DNA plate with reporter constructs to be tested, 96-well skirted PCR plates, and 96-well flat-bottom, black, fluorescent assay plates. […]

HEK 293T = experiment: Cell viability (CellTiter-Fluor), HEK 293T; format: cell-based; settings: Homo sapiens, 24-72 hrs
Procedure: (§8) Count and dispense 2,000-10,000 cells per well (100 μL volume) in black 96-well tissue culture microplate and let cells adhere overnight. Add compound dissolved in 100% DMSO to each well as needed and incubate cells in standard culture conditions for 24-72 hrs. Final DMSO concentration in each well should be 0.1-0.5%. At the desired time point, gently aspirate compound containing media and replace with PBS to wash. Repeat wash step for 2 total washes. Remove PBS and add 100 μL CellTiter-Fluor reagent (Promega) reagent to each well. Seal plate and incubate 1 hr at room temperature with orbital shaking. Analyze fluorescence using plate reader to quantify viable cells compared with vehicle (DMSO) control.

HPAF-II = experiment: Cell viability (CellTiter-Fluor), HPAF-II; format: cell-based; settings: Homo sapiens, 24-72 hrs
Procedure: as §8

KLE = experiment: Cell viability (CellTiter-Fluor), KLE; format: cell-based; settings: Homo sapiens, 24-72 hrs
Procedure: as §8

LS411N = experiment: Cell viability (CellTiter-Fluor), LS411N; format: cell-based; settings: Homo sapiens, LS-411N, 24-72 hrs
Procedure: as §8

MCF7 = experiment: Cell viability (CellTiter-Fluor), MCF7; format: cell-based; settings: Homo sapiens, MCF7, 24-72 hrs
Procedure: as §8

NCI-H1915 = experiment: Cell viability (CellTiter-Fluor), NCI-H1915; format: cell-based; settings: NCI-H1915, 24-72 hrs
Procedure: as §8

MCL-1 = experiment: In vitro transcription-translation (IVTT) reporter assay, MCL-1 test sequence; format: biochemical; settings: HeLa S3 lysate, sfGFP/mCherry ratio, 2 hrs at 30° C.
Source text: as §2, §3, §4, §5, §6, §7

BCL-2 = experiment: In vitro transcription-translation (IVTT) reporter assay, BCL-2 test sequence; format: biochemical; settings: HeLa S3 lysate, sfGFP/mCherry ratio, 2 hrs at 30° C.
Source text: as §2, §3, §4, §5, §6, §7

Row | pIC50 (MYC) | pIC50 (KRAS G12D) | pIC50 (CCND1) | pIC50 (MCL-1) | pIC50 (BCL-2) | Structure (SMILES) | other results
1 | > 5.00 | > 5.00 | > 5.00 | – | – | COc1ccc(C[C@H]2NC[C@H](O)[C@H]2OC(=O)Cc2cnc[nH]2)cc1 [V0109, (2R,3S,4S)-4-hydroxy-2-[(4-methoxyphenyl)methyl]pyrrolidin-3-yl 2-(3H-imidazol-4-yl)acetate] | pIC50 (ALK): > 5.00; pIC50 (HEK 293T): > 6.60; pIC50 (HPAF-II): 6.00 to 6.60; pIC50 (KLE): 6.00 to 6.60; pIC50 (LS411N): 6.00 to 6.60; pIC50 (MCF7): 6.00 to 6.60; pIC50 (NCI-H1915): 6.00 to 6.60
2 | > 5.00 | > 5.00 | > 5.00 | > 5.00 | – | COc1ccc(C[C@H]2NC[C@H](O)[C@H]2OC(=O)CC(C)C)cc1 [V187035, (2R,3S,4S)-4-hydroxy-2-[(4-methoxyphenyl)methyl]pyrrolidin-3-yl 3-methylbutanoate] | pIC50 (ALK): > 5.00
3 | > 5.00 | > 5.00 | > 5.00 | > 5.00 | – | COc1ccc(C[C@H]2NC[C@H](O)[C@H]2OC(=O)Cc2cc(Br)cs2)cc1 [V187070, (2R,3S,4S)-4-hydroxy-2-[(4-methoxyphenyl)methyl]pyrrolidin-3-yl 2-(4-bromothiophen-2-yl)acetate] | –
4 | > 5.00 | > 5.00 | > 5.00 | – | – | COc1ccc(C[C@H]2NC[C@H](O)[C@H]2OC(=O)Cc2cnccn2)cc1 [V187088, (2R,3S,4S)-4-hydroxy-2-[(4-methoxyphenyl)methyl]pyrrolidin-3-yl 2-(pyrazin-2-yl)acetate] | pIC50 (ALK): > 5.00
5 | < 4.52 | – | 4.52 to 4.70 | 4.52 to 4.70 | 4.52 to 4.70 | COc1ccc(C[C@H]2NC[C@H](O)[C@H]2OC(C)=O)cc1Br [V187263] | –
6 | > 5.00 | – | > 5.00 | > 5.00 | – | COc1ccc(C[C@H]2NC[C@H](O)[C@H]2OC(C)=O)cc1F [V187569] | –
7 | > 5.00 | – | > 5.00 | > 5.00 | > 5.00 | CC(=O)O[C@@H]1[C@@H](O)CN[C@@H]1Cc1ccc(-c2cn(C)nn2)cc1 [V187748] | –
8 | > 5.00 | > 5.00 | > 5.00 | – | – | CC(=O)O[C@@H]1[C@@H](O)CN[C@@H]1Cc1ccc(-c2cn(Cc3ccccc3)nn2)cc1 [V187750] | pIC50 (ALK): > 5.00
9 | > 5.00 | – | > 5.00 | > 5.00 | > 5.00 | CC(=O)O[C@@H]1[C@@H](O)CN[C@@H]1Cc1ccc(-c2cn(-c3cccnc3)nn2)cc1 [V187751] | –
10 | > 5.00 | – | > 5.00 | > 5.00 | > 5.00 | CC(=O)O[C@@H]1[C@@H](O)CN[C@@H]1Cc1ccc(-c2cn(C3CCOCC3)nn2)cc1 [V187838] | –
11 | > 5.00 | – | > 5.00 | > 5.00 | > 5.00 | CC(=O)O[C@@H]1[C@@H](O)CN[C@@H]1Cc1ccc(-c2cn(-c3ccc(Cl)cc3)nn2)cc1 [V187839] | –
12 | > 5.00 | – | > 5.00 | > 5.00 | > 5.00 | CC(=O)O[C@@H]1[C@@H](O)CN[C@@H]1Cc1ccc(-c2cn(Cc3cn[nH]c3)nn2)cc1 [V187844] | –
13 | > 5.00 | – | > 5.00 | > 5.00 | > 5.00 | CC(=O)O[C@@H]1[C@@H](O)CN[C@@H]1Cc1ccc(-c2nn[nH]c2Cl)cc1 [V187854] | –
14 | > 5.00 | – | > 5.00 | > 5.00 | > 5.00 | CC(=O)O[C@@H]1[C@@H](O)CN[C@@H]1Cc1ccc(-c2nnn(C)c2Cl)cc1 [V187855] | –
15 | > 5.00 | – | > 5.00 | > 5.00 | > 5.00 | CC(=O)O[C@@H]1[C@@H](O)CN[C@@H]1Cc1ccc(-c2nnn(Cc3ccccc3)c2Cl)cc1 [V187856] | –
16 | < 4.52 | – | < 4.52 | < 4.52 | – | COc1ccc(C[C@H]2NC[C@H](O)[C@H]2OC(C)=O)cc1C#N [V188045] | –
17 | > 5.00 | – | > 5.00 | > 5.00 | – | COc1ccc(C[C@H]2NC[C@H](O)[C@H]2OC(C)=O)cc1Cl [V188046] | –
18 | > 5.00 | – | > 5.00 | > 5.00 | – | CC(=O)O[C@@H]1[C@@H](O)CN[C@@H]1Cc1ccc([N+](=O)[O-])cc1 [V188168, (2R,3S,4S)-4-hydroxy-2-[(4-nitrophenyl)methyl]pyrrolidin-3-yl acetate] | –
19 | < 4.52 | – | – | < 4.52 | – | COc1ccc(C[C@H]2NC[C@](C)(O)[C@H]2OC(C)=O)cc1 [V188182, (2R,3S,4S)-4-hydroxy-2-[(4-methoxyphenyl)methyl]-4-methylpyrrolidin-3-yl acetate] | –

Row | Structure (SMILES) | pIC50 (MYC) | pIC50 (KRAS G12D) | pIC50 (CCND1) | pIC50 (MCL-1) | pIC50 (BCL-2) | other results
20 | COc1ccc(C[C@H]2NC[C@H](O)[C@H]2OC(=O)Cc2ccc(Cl)cc2)cc1 [V187055, (2R,3S,4S)-4-hydroxy-2-[(4-methoxyphenyl)methyl]pyrrolidin-3-yl 2-(4-chlorophenyl)acetate; trifluoroacetic acid] | > 5.00 | > 5.00 | > 5.00 | > 5.00 | – | –
21 | COc1ccc(C[C@H]2NC[C@H](O)[C@H]2OC(=O)CCNC(C)C)cc1 [V187155, (2R,3S,4S)-4-hydroxy-2-[(4-methoxyphenyl)methyl]pyrrolidin-3-yl 3-(isopropylamino)propanoate; trifluoroacetic acid] | < 4.52 | < 4.52 | > 5.00 | – | – | pIC50 (ALK): 4.70 to 5.00
22 | COc1ccc(C[C@H]2NC[C@H](O)[C@H]2OC(=O)CC(F)(F)F)cc1 [V187162, (2R,3S,4S)-4-hydroxy-2-[(4-methoxyphenyl)methyl]pyrrolidin-3-yl 3,3,3-trifluoropropanoate; trifluoroacetic acid] | > 5.00 | > 5.00 | > 5.00 | – | – | pIC50 (ALK): > 5.00
23 | COc1ccc(C[C@H]2NC[C@H](O)[C@H]2OC(=O)CNC2CC(F)(F)C2)cc1 [V187172] | > 5.00 | > 5.00 | > 5.00 | – | – | pIC50 (ALK): > 5.00
24 | CC(=O)O[C@@H]1[C@@H](O)CN[C@@H]1Cc1ccc(-c2cn(-c3ccc(C(F)(F)F)cc3)nn2)cc1 [V187840] | > 5.00 | – | > 5.00 | > 5.00 | > 5.00 | –
25 | COc1ccc(C[C@H]2NC[C@H](O)[C@H]2OC(C)=O)cc1I [V188005] | < 4.52 | – | < 4.52 | < 4.52 | < 4.52 | –
